This is an account of results in patent US12053480B2, “Methods and pharmaceutical compositions for treating peripheral demyelinating diseases” (INSERM (INSTITUT NATIONAL DE LA SANTE ET DE LA RECHERCHE …, priority 2015, dated 2024).

Structures are written as SMILES.

For assay [1], the system named is phospho-c-jun. The assay is described as follows: Immunohistochemistry of phospho-c-jun in mSC of CMT1A rats. In kind it is in vivo, rat. The note with it: compared to vehicle. As to the method: The dissected nerve was washed in L15 medium, fixed in Zamboni's fixative (Stefanini et al., 1967^4) for 10 min at room temperature, washed in PBS, and incubated in successive glycerol baths (15, 45, 60, 66% in PBS) for 18 to 24 h each before freezing at −20° C. The nerves were cut in small pieces in 66% glycerol and the perineurium sheet removed. Small bundles of fibers were teased in double-distilled water on Superfrost slides, dried overnight at room temperature, and the slides stored at −20° C. For immunostaining, the teased fibers were incubated for 1 h at room temperature in blocking solution (10% goat serum, 0.2% TritonX100, and 0.01% sodium azide in PBS). […]
While demyelinating diabetes peripheral neuropathy is a commonly acquired disease, demyelination is also the characteristic feature of a large number of inherited diseases called Charcot-Marie-Tooth diseases (CMT). […] Twelve weeks old CMT1A rats were daily treated with TRO19622 for 15 or 30 days and one day or two months after treatment, we analyzed MAPK demyelination pathways by western blot. […] Then we analyzed phospho-c-jun activation in mSC using immunohistochemistry. […] Next, we measured Schwann cell demyelination and g-ratio by toluidine blue staining on semi-thin sciatic nerve sections and on thin sections using electron microscopy.

Assay [2] relates to phospho-c-jun. The assay is described as follows: Immunohistochemistry of nuclear phospho-c-jun in mSC after nerve crush or MJ. As to conditions: immunohistochemistry; TRO19622 30 minutes prior crush. In kind it is in vivo, mouse. As to the method: The dissected nerve was washed in L15 medium, fixed in Zamboni's fixative (Stefanini et al., 1967^4) for 10 min at room temperature, washed in PBS, and incubated in successive glycerol baths (15, 45, 60, 66% in PBS) for 18 to 24 h each before freezing at −20° C. The nerves were cut in small pieces in 66% glycerol and the perineurium sheet removed. Small bundles of fibers were teased in double-distilled water on Superfrost slides, dried overnight at room temperature, and the slides stored at −20° C. For immunostaining, the teased fibers were incubated for 1 h at room temperature in blocking solution (10% goat serum, 0.2% TritonX100, and 0.01% sodium azide in PBS). Then, the samples were then incubated with anti-ECCD2 primary mouse antibody (1/100, BD biosciences, Ref. 610181), anti-phosphoS63-c-jun primary mouse antibody (1/200, BD Biosciences, Ref. 558036), anti-c-jun primary mouse antibody (1/200, BD Biosciences, Ref. 610326), anti-VDAC primary rabbit antibody (1/100, Cell Signaling, Ref. 4866) or/and MitoTracker Red (1/1000, Molecular Probes, Ref. M7515) in blocking solution overnight at 4° C. The next day, the samples were washed in PBS and incubated for 1 h at room temperature with secondary donkey antibodies coupled to Alexa488, Alexa 594 or Alexa647 (1/1600, Molecular probes) and TO-PRO-3 iodide (50 μM, Invitroge, Ref. T3605). Finally the samples were washed in PBS and mounted in Immu-mount (Thermo Scientific). Images were acquired at room temperature using a 20× or 40× objective, a Zeiss confocal microscope LSM710, and its associated software.
(§1) TRO19622 drug (Tocris bioscience, Ref. 2906) was diluted in ethanol to 20 mM and then, the solution was diluted in sterile PBS to 20 μM. TRO19622 treatments were realized by 3 mg/kg intraperitoneal (IP) injections of 20 mM solution or by intra sciatic nerve injections of 2 μl of drug solution 2 μM using a Hamilton syringe or a glass needle in sterile conditions 30 minutes before multiphoton image acquisitions or immunohistochemistry and demyelination studies respectively. Methyl jasmonate drug (Sigma-Aldrich, Ref. 392707) was diluted in 1 ml of sterile PBS to 1M or 3M. Methyl jasmonate treatments were realized by intra sciatic nerve injections of 1 μl of drug solution using a glass needle and micromanipulator in sterile conditions following the same virus injections procedure (see in vivo virus injection in the sciatic nerve method) two hours before multiphoton image acquisition. […] All drug concentrations were previously evaluated by Bordet et al, 2007^5; Goldin et al, 2008^6; Sharov et al, 2007^7.
To go further we also selectively silenced VDAC1 in mSC and measured the expression level of nuclear phospho-c-jun by immunohistochemistry after nerve crush. […]

The test system of a further assay is mSC mitochondria. Briefly: Mitochondrial pH imaging (mito-SypHer) in mSC of mouse sciatic nerve. In kind it is in vivo. The note with it: after nerve crush. As to the method: Mice were anesthetized with isoflurane inhalation and placed under a Stemi2000 microscope (Zeiss). Incision area was shaved and cleaned using betadine solution. After incision, the gluteus superficialis and biceps femoris muscles were separated to reveal the cavity traversed by the sciatic nerve. The nerve was lift out using spatula and a thin glass needle filled with viral solution (8 μl) was introduced into the nerve with a micromanipulator. This solution was injected over 30 min with short pressure pulses using a Picospritzer III (Parker Hannifin) coupled to a pulse generator. After injection, the nerve was replaced into the cavity, the muscles were readjusted, and the wound was closed using clips (for further details see Gonzalez et al., 2014^3).
as §1
First injected mouse was anesthetized with 5% of isoflurane a 1.5% of oxygen into the anesthesia system box (World Precision Instruments, Ref. EZ-B800) for 5 minutes. Anesthesia controls were realized^8. Then, mouse was placed in anesthesia mask and the incision area was shaved and cleaned with betadine and ethanol 70% solution. […]

In assay [3] the test system is phospho-ERK1/2, phospho-p38, phospho-JNK and phospho-c-jun. The assay is described as follows: Western blot of MAPK demyelination pathways in CMT1A rats. Type of assay: in vivo, rat. As to conditions: for activation of phospho-ERK1/2, phospho-p38, phospho-JNK and phospho-c-jun: after 15 and 30 days of treatment. An excerpt: While demyelinating diabetes peripheral neuropathy is a commonly acquired disease, demyelination is also the characteristic feature of a large number of inherited diseases called Charcot-Marie-Tooth diseases (CMT). We therefore sought to test whether the inhibition of VDAC1 function could prevent demyelination in these diseases. We choose CMT1A rat strain^42 as this is arguably the most representative animal model of Charcot-Marie-Tooth disease, mimicking CMT1A the most prevalent CMT in humans^10. Twelve weeks old CMT1A rats were daily treated with TRO19622 for 15 or 30 days and one day or two months after treatment, we analyzed MAPK demyelination pathways by western blot. […] However, these effects disappeared two months after treatment. Then we analyzed phospho-c-jun activation in mSC using immunohistochemistry. […] Next, we measured Schwann cell demyelination and g-ratio by toluidine blue staining on semi-thin sciatic nerve sections and on thin sections using electron microscopy.
On the technique in general: In western blotting, separated proteins are transferred to a membrane and probed.

As for `CC(C)CCC[C@@H](C)[C@H]1CC[C@H]2[C@@H]3CCC4=C/C(=N\O)CC[C@]4(C)[C@H]3CC[C@]12C` [TRO19622, (NZ)—N-[(8S,9S,10R,13R,14S,17R)-10,13-dimethyl-17-[(2R)-6-methylheptan-2-yl]-1,2,6,7,8,9,11,12,14,15,16,17-dodecahydrocyclopenta[a]phenanthren-3-ylidene]hydroxylamine], the “phospho-c-jun amount in the mSC nucleus” value in the assay with phospho-c-jun [1] is reported as “strongly reduced”. The “nuclear phospho-c-jun in mSC after nerve crush” value in the assay with phospho-c-jun [2] was “strongly reduced”. Further, the “changes induced by nerve crush in mitochondrial pH not abrogated” value in the assay with mSC mitochondria is on record as 12%. Further, the “activation of phospho-ERK1/2, phospho-p38, phospho-JNK and phospho-c-jun” value in assay [3] is “significant down-regulation”; in assay [3] (listed as TRO16922) it was “prevented”. Also, the “down-regulation of MAPK demyelination pathways after treatment stop” value in assay [3] (two months after treatment) was “disappeared”.
